Molecules are shown by their SMILES. Residues, ends and D or L forms follow the SMILES beside them.

The assay addresses T1, C-proteinase (Homo sapiens, UniProt P13497).
T1 sequence (P13497 121-986): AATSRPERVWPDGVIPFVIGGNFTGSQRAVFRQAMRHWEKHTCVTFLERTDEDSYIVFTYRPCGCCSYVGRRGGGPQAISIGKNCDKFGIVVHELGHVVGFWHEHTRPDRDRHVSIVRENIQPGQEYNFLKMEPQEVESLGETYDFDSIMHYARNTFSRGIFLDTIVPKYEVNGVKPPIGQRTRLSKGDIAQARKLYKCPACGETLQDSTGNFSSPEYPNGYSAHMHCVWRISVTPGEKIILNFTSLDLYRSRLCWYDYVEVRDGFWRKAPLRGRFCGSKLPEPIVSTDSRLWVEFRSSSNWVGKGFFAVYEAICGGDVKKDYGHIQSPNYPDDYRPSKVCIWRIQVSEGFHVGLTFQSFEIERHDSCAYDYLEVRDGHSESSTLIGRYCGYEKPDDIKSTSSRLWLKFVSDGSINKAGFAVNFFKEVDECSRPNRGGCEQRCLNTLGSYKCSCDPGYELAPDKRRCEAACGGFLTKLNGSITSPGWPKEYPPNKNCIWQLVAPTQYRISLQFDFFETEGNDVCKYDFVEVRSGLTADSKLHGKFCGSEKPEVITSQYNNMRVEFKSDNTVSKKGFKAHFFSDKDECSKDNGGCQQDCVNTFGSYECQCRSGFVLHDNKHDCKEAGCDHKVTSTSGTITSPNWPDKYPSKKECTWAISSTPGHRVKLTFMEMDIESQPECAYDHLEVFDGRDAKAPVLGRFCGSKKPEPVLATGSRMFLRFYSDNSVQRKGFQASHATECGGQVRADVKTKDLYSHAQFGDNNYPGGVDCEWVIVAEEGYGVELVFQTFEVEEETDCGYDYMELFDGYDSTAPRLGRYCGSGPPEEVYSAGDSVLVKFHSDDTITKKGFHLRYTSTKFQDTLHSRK
Kind of assay: Cleavage of synthetic procollagen cleavage-site peptides by active C-proteinase. Format: biochemical. The conditions noted are these: for Cleavability: Table 1, cleavability of peptides resembling the C-proteinase cleavage site of procollagen; for cleavability by C-proteinase: truncated and extended peptides compared with original peptide SEQ ID NO:6. From the text:
A variety of short peptides comprising five (5) to twelve (12) amino acids was synthesized and tested for cleavage by active C-proteinase.
First, four peptides, each comprising eight (8) amino acids corresponding to the cleavage region of several procollagens were synthesized. See, TABLE 1, SEQ ID NO:3, SEQ ID NO:4, SEQ ID NO:5, and SEQ ID NO:6. All four peptides were examined for cleavability by C-proteinase. […] Indeed, one would expect that recognition of the cleavage site depends on structural requirements which cannot be resembled by only eight (8) amino acids.
Second, a series of peptides was prepared based on the sequence of original peptide SEQ ID NO:6. Specifically, peptides were designed resembling the core of the peptide comprising SEQ ID NO:6, but with truncations of one, two and three amino acids from either side of the cleavage site. A further peptide was synthesized resembling two additional amino acids at both the N-terminus and C-terminus of the original peptide comprising SEQ ID NO:6.
Removing two or more amino acids from either end of the original SEQ ID NO:6 sequence, however, yielded a non-cleavable peptide (SEQ ID NOS:9, 10, 12, 13).

On to `CSCC[C@H](NC(=O)[C@@H]1CCCN1C(=O)[C@H](CCC(=O)O)NC(=O)[C@H](CC(=O)O)NC(=O)CNC(=O)[C@H](Cc1ccc(O)cc1)NC(C)=O)C(N)=O` [SEQ ID NO:12, Ac-YG-DEPM-NH2] (Ac-YGDEPM-NH2), for which the Cleavability entry is “none” and the “cleavability by C-proteinase” value is given as “non-cleavable”.

In the case of `CSCC[C@H](NC(=O)[C@@H]1CCCN1C(=O)[C@H](CCC(=O)O)NC(=O)[C@H](CC(=O)O)NC(=O)CNC(=O)[C@H](Cc1ccc(O)cc1)NC(=O)[C@H](Cc1ccc(O)cc1)NC(C)=O)C(N)=O` [SEQ ID NO:11, Ac-YYG-DEPM-NH2] (Ac-YYGDEPM-NH2), the Cleavability result was “excellent” and the “cleavability by C-proteinase” value was “did not drastically alter its cleavability”.

On to `CSCC[C@H](NC(=O)[C@@H]1CCCN1C(=O)[C@H](CCC(=O)O)NC(=O)[C@H](CC(=O)O)NC(=O)CNC(C)=O)C(N)=O` [SEQ ID NO:13, Ac-G-DEPM-NH2] (Ac-GDEPM-NH2), for which the Cleavability result is reported as “none” and the “cleavability by C-proteinase” value is “non-cleavable”.

On to `CC(=O)N1CCC[C@H]1C(=O)N[C@@H](Cc1ccc(O)cc1)C(=O)N[C@@H](Cc1ccc(O)cc1)C(=O)NCC(=O)N[C@@H](CC(=O)O)C(=O)N[C@@H](CCC(=O)O)C(=O)N1CCC[C@H]1C(N)=O` [SEQ ID NO:8, Ac-PYYG-DEP-NH2] (Ac-PYYGDEP-NH2), for which the Cleavability entry was “excellent” and the “cleavability by C-proteinase” value is “did not drastically alter its cleavability”.

Turning to `CC(=O)N[C@@H](Cc1ccc(O)cc1)C(=O)N[C@@H](Cc1ccc(O)cc1)C(=O)N[C@@H](CCCNC(=N)N)C(=O)N[C@@H](C)C(=O)N[C@@H](CC(=O)O)C(=O)N[C@@H](CC(=O)O)C(=O)N[C@@H](C)C(=O)N[C@@H](CC(N)=O)C(N)=O` [SEQ ID NO:3, Ac-YYRA-DDAN-NH2] (Ac-YYRADDAN-NH2), the Cleavability result is given as “slight” and the “cleavability by C-proteinase” value is on record as “cleaved by C-proteinase”.

`CSCC[C@H](NC(=O)[C@@H]1CCCN1C(=O)[C@H](CCC(=O)O)NC(=O)[C@H](CC(=O)O)NC(=O)CNC(=O)[C@H](Cc1ccc(O)cc1)NC(=O)[C@H](Cc1ccc(O)cc1)NC(=O)[C@@H]1CCCN1C(C)=O)C(N)=O` [SEQ ID NO:6, Ac-PYYG-DEPM-NH2] (Ac-PYYGDEPM-NH2): the Cleavability entry is given as “excellent” and the “cleavability by C-proteinase” value is recorded as “cleaved much more efficiently than the three others”.

The values above are taken from patent US5807981A (FibroGen Inc., priority 1995, dated 1998).
